Reference: patent publication US11993599B2, “Therapeutic compounds” (Genentech, Inc., priority 2021, dated 2024)

Experiments:
[1] = target: T1, BRG1 (Homo sapiens, UniProt P51532); assay: Immunofluorescence assay for BRG1 degradation in SW1573 cells; format: cell-based; details: 20 hours incubation; for DC50: immunofluorescence mean nuclear signal, read-out: BRG1 IF Degradation IC50; for Dmax: SW1573, 20 h, read-out: BRG1 IF Degradation Sinf (%)
T1 construct: either BRM primary antibody (Cell signaling Cat #11966) or BRG primary antibody (Abcam, ab 110641); endogenous in cells; host or cells: SW1573
T1 sequence (P51532 whole entry): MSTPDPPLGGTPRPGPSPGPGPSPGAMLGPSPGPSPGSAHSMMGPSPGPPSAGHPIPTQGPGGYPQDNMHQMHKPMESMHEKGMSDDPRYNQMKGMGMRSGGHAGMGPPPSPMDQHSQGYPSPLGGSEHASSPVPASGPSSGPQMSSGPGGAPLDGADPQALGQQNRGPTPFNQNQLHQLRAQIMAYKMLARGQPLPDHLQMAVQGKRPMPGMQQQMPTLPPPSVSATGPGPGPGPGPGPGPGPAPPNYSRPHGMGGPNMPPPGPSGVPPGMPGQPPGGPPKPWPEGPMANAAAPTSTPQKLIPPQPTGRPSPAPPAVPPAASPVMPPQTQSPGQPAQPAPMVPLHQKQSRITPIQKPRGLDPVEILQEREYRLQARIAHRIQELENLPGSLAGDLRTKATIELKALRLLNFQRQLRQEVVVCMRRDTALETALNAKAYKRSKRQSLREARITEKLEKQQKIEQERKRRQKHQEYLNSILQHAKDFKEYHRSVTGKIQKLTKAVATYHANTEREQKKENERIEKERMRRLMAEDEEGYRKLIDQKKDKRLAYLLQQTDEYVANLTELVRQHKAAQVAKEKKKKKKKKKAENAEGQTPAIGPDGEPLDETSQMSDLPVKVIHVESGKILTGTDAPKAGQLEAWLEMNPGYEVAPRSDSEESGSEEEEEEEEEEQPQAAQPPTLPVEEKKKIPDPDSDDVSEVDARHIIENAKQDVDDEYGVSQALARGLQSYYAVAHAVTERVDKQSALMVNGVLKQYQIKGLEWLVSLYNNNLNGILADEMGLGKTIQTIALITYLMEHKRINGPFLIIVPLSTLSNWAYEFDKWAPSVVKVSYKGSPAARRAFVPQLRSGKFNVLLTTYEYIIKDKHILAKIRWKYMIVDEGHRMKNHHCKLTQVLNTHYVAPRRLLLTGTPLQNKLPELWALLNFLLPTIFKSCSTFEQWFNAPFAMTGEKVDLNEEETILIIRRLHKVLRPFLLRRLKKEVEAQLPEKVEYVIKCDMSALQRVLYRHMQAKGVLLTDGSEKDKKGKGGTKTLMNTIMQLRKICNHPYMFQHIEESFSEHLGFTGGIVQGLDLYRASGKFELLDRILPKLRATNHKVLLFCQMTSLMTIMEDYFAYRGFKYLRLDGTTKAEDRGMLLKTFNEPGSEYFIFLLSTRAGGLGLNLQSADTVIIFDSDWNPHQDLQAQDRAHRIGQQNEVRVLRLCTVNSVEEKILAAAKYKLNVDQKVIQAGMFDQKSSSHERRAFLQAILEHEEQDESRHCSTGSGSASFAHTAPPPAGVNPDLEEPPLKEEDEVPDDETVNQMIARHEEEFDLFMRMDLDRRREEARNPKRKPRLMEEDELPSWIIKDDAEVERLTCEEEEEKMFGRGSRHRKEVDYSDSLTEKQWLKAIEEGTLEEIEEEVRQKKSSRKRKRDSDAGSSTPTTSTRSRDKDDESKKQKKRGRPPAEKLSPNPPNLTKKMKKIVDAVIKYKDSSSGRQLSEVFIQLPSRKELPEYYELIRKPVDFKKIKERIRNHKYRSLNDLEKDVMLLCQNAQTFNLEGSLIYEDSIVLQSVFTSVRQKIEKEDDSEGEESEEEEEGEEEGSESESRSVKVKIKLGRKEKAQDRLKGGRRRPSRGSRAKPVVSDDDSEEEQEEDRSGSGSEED
Method in brief: (§1)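 Imaging-based readout in SW1573: 20 h dosing, formaldehyde fixation, antibody staining for either remodeler, nuclear intensity per cell quantified. Values normalized to control degrader; floating-maximum fit.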

[2] = target: BRM (Homo sapiens, UniProt P51531); assay: Immunofluorescence assay for BRM degradation in SW1573 cells; format: cell-based; design: treated overnight at 4° C. with either BRM primary antibody (Cell signaling Cat #11966) or BRG primary antibody; endogenous in cells; host or cells: SW1573; details: 20 hours incubation; for DC50: immunofluorescence mean nuclear signal, read-out: BRM IF Degradation IC50; for BRM IF Degradation Sinf (%): normalized to a known degrader control
Chain of BRM (P51531 whole entry): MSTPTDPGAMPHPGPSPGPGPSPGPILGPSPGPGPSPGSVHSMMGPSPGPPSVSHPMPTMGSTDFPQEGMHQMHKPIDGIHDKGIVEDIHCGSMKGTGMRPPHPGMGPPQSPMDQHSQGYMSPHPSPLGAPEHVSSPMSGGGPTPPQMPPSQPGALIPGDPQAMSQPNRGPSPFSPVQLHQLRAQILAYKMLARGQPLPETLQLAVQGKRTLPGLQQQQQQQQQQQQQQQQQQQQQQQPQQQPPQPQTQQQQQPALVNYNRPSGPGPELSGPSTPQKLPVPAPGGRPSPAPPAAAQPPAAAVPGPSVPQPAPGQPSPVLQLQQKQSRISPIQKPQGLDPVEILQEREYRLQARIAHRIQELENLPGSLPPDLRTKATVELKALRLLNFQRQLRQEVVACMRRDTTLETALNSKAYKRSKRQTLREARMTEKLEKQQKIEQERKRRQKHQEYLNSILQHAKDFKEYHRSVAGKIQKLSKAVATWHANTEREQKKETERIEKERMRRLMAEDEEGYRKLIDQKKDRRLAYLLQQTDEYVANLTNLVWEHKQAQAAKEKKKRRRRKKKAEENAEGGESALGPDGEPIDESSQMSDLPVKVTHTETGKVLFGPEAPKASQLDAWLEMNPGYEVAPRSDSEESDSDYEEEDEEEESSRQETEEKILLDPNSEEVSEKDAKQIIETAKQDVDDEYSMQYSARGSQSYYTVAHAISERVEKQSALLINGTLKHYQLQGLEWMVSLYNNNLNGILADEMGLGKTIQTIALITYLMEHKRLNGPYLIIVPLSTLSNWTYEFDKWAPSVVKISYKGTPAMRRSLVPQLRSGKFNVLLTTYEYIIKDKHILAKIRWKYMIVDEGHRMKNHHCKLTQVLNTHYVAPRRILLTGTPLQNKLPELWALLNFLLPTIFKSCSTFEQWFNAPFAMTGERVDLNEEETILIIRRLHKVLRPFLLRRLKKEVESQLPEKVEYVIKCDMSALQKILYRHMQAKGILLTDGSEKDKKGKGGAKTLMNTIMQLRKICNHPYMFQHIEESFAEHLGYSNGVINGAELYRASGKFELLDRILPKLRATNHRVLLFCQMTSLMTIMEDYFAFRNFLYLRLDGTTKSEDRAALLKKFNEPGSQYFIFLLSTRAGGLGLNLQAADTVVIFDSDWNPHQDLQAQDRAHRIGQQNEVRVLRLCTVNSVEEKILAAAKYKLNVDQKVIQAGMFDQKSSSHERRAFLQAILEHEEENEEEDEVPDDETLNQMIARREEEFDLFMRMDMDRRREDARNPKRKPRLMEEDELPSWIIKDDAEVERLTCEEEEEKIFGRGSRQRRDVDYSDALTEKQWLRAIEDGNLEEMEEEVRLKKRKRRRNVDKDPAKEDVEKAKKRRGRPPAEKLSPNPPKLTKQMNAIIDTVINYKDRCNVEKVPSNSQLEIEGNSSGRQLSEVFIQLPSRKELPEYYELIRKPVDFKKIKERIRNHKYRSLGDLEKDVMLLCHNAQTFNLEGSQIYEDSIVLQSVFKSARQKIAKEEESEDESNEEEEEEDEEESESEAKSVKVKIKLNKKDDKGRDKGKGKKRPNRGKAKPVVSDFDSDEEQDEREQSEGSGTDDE
Method in brief: as §1

[3] = normalized to a known degrader control

| Structure (SMILES) | DC50 [1] [µM] | Dmax [1, 3] [%] | DC50 [2] [µM] | BRM IF Degradation Sinf (%) [2] | BRG1 IF Degradation Sinf (%) [1, 3] |
| --- | --- | --- | --- | --- | --- |
| CC1(F)CN(CC#Cc2cc(N3C4CCC3CN(c3cc(-c5ccccc5O)nnc3N)C4)ccn2)C1 [Compound 173, 2-[6-amino-5-[8-[2-[3-(3-fluoro-3-methyl-azetidin-1-yl)prop-1-ynyl]-4-pyridyl]-3,8-diazabicyclo[3.2.1]octan-3-yl]pyridazin-3-yl]phenol] | 0.01 to 0.1 | 30 to 70 | 0.01 to 0.1 | F (F indicates −71%-−120%) |  |
| Nc1nnc(-c2ccccc2O)cc1N1CC2CCC(C1)N2c1ccnc(C#CCN2CCC3(CC2)CC3)c1 [Compound 136, 2-(5-(8-(2-(3-(6-azaspiro[2.5]octan-6-yl)prop-1-yn-1-yl)pyridin-4-yl)-3,8-diazabicyclo[3.2.1]octan-3-yl)-6-aminopyridazin-3-yl)phenol] | < 0.01 | 30 to 70 | < 0.01 | E (E indicates −30%-−70%) |  |
| Nc1nnc(-c2ccccc2O)cc1N1CC2CCC(C1)N2c1ccnc(C#CCN2CCn3cncc3C2)c1 [Compound 72, 2-[6-amino-5-[8-[2-[3-(6,8-dihydro-5H-imidazo[1,5-a]pyrazin-7-yl)prop-1-ynyl]-4-pyridyl]-3,8-diazabicyclo[3.2.1]octan-3-yl]pyridazin-3-yl]phenol] | > 0.1 |  | 0.01 to 0.1 | E (E indicates −30%-−70%) |  |
| Nc1nnc(-c2ccccc2O)cc1N1CC2CCC(C1)N2c1ccnc(C#CCN2CC3(C2)C(CF)CCS3(=O)=O)c1 (centres unmarked) [Compound 177, 2-[6-amino-5-[8-[2-[3-[8-(fluoromethyl)-5,5-dioxo-5lambda6-thia-2-azaspiro[3.4]octan-2-yl]prop-1-ynyl]-4-pyridyl]-3,8-diazabicyclo[3.2.1]octan-3-yl]pyridazin-3-yl]phenol] | 0.01 to 0.1 | 30 to 70 | 0.01 to 0.1 | E (E indicates −30%-−70%) |  |
| Nc1nnc(-c2ccccc2O)cc1N1CC2CCC(C1)N2c1ccnc(C#CCN2CC3CCC3C2)c1 (centres unmarked) [Compound 91, 2-[6-amino-5-[8-[2-[3-(3-azabicyclo[3.2.0]heptan-3-yl)prop-1-ynyl]-4-pyridyl]-3,8-diazabicyclo[3.2.1]octan-3-yl]pyridazin-3-yl]phenol] | < 0.01 | 30 to 70 | < 0.01 | E (E indicates −30%-−70%) |  |
| N#CC1CCN(CC#Cc2cc(N3C4CCC3CN(c3cc(-c5ccccc5O)nnc3N)C4)ccn2)CC1 [Compound 139, 1-[3-[4-[3-[3-amino-6-(2-hydroxyphenyl)pyridazin-4-yl]-3,8-diazabicyclo[3.2.1]octan-8-yl]-2-pyridyl]prop-2-ynyl]piperidine-4-carbonitrile] | 0.01 to 0.1 | 0 to 30 | < 0.01 | E (E indicates −30%-−70%) |  |
| Nc1nnc(-c2ccccc2O)cc1N1CC2CCC(C1)N2c1ccnc(C#CCN2CC3CC2CC3(F)F)c1 (centres unmarked) [Compound 143, 2-[6-amino-5-[8-[2-[3-(5,5-difluoro-2-azabicyclo[2.2.1]heptan-2-yl)prop-1-ynyl]-4-pyridyl]-3,8-diazabicyclo[3.2.1]octan-3-yl]pyridazin-3-yl]phenol] | < 0.01 | 0 to 30 | < 0.01 | E (E indicates −30%-−70%) |  |
| Nc1nnc(-c2ccccc2O)cc1N1CC2CCC(C1)N2c1ccnc(C#CCN2CCC23CCOC3)c1 (centres unmarked) [Compound 167, 2-[6-amino-5-[8-[2-[3-(7-oxa-1-azaspiro[3.4]octan-1-yl)prop-1-ynyl]-4-pyridyl]-3,8-diazabicyclo[3.2.1]octan-3-yl]pyridazin-3-yl]phenol] | < 0.01 |  | < 0.01 | F (F indicates −71%-−120%) | F (F indicates −71%-−120%) |
| Nc1nnc(-c2ccccc2O)cc1N1CC2CCC(C1)N2c1ccnc(C#CCN2CC(C3CCOC3)C2)c1 (centres unmarked) [Compound 157, 2-[6-amino-5-[8-[2-[3-(3-tetrahydrofuran-3-ylazetidin-1-yl)prop-1-ynyl]-4-pyridyl]-3,8-diazabicyclo[3.2.1]octan-3-yl]pyridazin-3-yl]phenol] | 0.01 to 0.1 | 30 to 70 | 0.01 to 0.1 | E (E indicates −30%-−70%) |  |
| Nc1nnc(-c2ccccc2O)cc1N1CC2CCC(C1)N2c1ccnc(C#CCN2CC3(CC(F)C3)C2)c1 [Compound 97, 2-[6-amino-5-[8-[2-[3-(6-fluoro-2-azaspiro[3.3]heptan-2-yl)prop-1-ynyl]-4-pyridyl]-3,8-diazabicyclo[3.2.1]octan-3-yl]pyridazin-3-yl]phenol] | < 0.01 | 30 to 70 | < 0.01 | F (F indicates −71%-−120%) |  |
| Nc1nnc(-c2ccccc2O)cc1N1CC2CCC(C1)N2c1ccnc(C#CCN2CC(F)(CO)C2)c1 [Compound 171, 2-[6-amino-5-[8-[2-[3-[3-fluoro-3-(hydroxymethyl)azetidin-1-yl]prop-1-ynyl]-4-pyridyl]-3,8-diazabicyclo[3.2.1]octan-3-yl]pyridazin-3-yl]phenol] | > 0.1 |  | > 0.1 | E (E indicates −30%-−70%) |  |
| Nc1nnc(-c2ccccc2O)cc1N1CC2CCC(C1)N2c1ccnc(C#CCN2CCC3OCCC3C2)c1 (centres unmarked) [Compound 145, 2-[5-[8-[2-[3-(3,3a,4,6,7,7a-hexahydro-2H-furo[3,2-c]pyridin-5-yl)prop-1-ynyl]-4-pyridyl]-3,8-diazabicyclo[3.2.1]octan-3-yl]-6-amino-pyridazin-3-yl]phenol] | < 0.01 | 0 to 30 | < 0.01 | E (E indicates −30%-−70%) |  |
| C[C@@H]1CN(CC#Cc2cc(N3C4CCC3CN(c3cc(-c5ccccc5O)nnc3N)C4)ccn2)C[C@H](C)O1 [Compound 59, 2-[6-amino-5-[8-[2-[3-[(2S,6R)-2,6-dimethylmorpholin-4-yl]prop-1-ynyl]-4-pyridyl]-3,8-diazabicyclo[3.2.1]octan-3-yl]pyridazin-3-yl]phenol] | < 0.01 | 0 to 30 | 0.01 to 0.1 | E (E indicates −30%-−70%) |  |
| Nc1nnc(-c2ccccc2O)cc1N1CC2CCC(C1)N2c1ccnc(C#CCN2CCCC(O)C2)c1 (centres unmarked) [Compound 50, 1-[3-[4-[3-[3-amino-6-(2-hydroxyphenyl)pyridazin-4-yl]-3,8-diazabicyclo[3.2.1]octan-8-yl]-2-pyridyl]prop-2-ynyl]piperidin-3-ol] | > 0.1 | 30 to 70 | 0.01 to 0.1 | E (E indicates −30%-−70%) |  |
| Nc1nnc(-c2ccccc2O)cc1N1CC2CCC(C1)N2c1ccnc(C#CCN2CCC23CCOCC3)c1 [Compound 159, 2-[6-amino-5-[8-[2-[3-(7-oxa-1-azaspiro[3.5]nonan-1-yl)prop-1-ynyl]-4-pyridyl]-3,8-diazabicyclo[3.2.1]octan-3-yl]pyridazin-3-yl]phenol] | < 0.01 | 30 to 70 | < 0.01 | E (E indicates −30%-−70%) |  |
| Nc1nnc(-c2ccccc2O)cc1N1CC2CCC(C1)N2c1ccnc(C#CCN2CCCC(F)CC2)c1 (centres unmarked) [Compound 193, 2-[6-amino-5-[8-[2-[3-(4-fluoroazepan-1-yl)prop-1-ynyl]-4-pyridyl]-3,8-diazabicyclo[3.2.1]octan-3-yl]pyridazin-3-yl]phenol] | < 0.01 | 71 to 120 | < 0.01 | F (F indicates −71%-−120%) |  |
| COCC1CCCCN1CC#Cc1cc(N2C3CCC2CN(c2cc(-c4ccccc4O)nnc2N)C3)ccn1 (centres unmarked) [Compound 41, 2-[6-amino-5-[8-[2-[3-[2-(methoxymethyl)-1-piperidyl]prop-1-ynyl]-4-pyridyl]-3,8-diazabicyclo[3.2.1]octan-3-yl]pyridazin-3-yl]phenol] | 0.01 to 0.1 | 30 to 70 | 0.01 to 0.1 | E (E indicates −30%-−70%) |  |
| Nc1nnc(-c2ccccc2O)cc1N1CC2CCC(C1)N2c1ccnc(C#CCN2CCCC(F)(F)C(F)C2)c1 (centres unmarked) [Compound 199, 2-[6-amino-5-[8-[2-[3-(3,4,4-trifluoroazepan-1-yl)prop-1-ynyl]-4-pyridyl]-3,8-diazabicyclo[3.2.1]octan-3-yl]pyridazin-3-yl]phenol] | 0.01 to 0.1 | 30 to 70 | < 0.01 | F (F indicates −71%-−120%) |  |
| CN1CCOC2(C1)CN(CC#Cc1cc(N3C4CCC3CN(c3cc(-c5ccccc5O)nnc3N)C4)ccn1)C2 [Compound 188, 2-[6-amino-5-[8-[2-[3-(8-methyl-5-oxa-2,8-diazaspiro[3.5]nonan-2-yl)prop-1-ynyl]-4-pyridyl]-3,8-diazabicyclo[3.2.1]octan-3-yl]pyridazin-3-yl]phenol] | > 0.1 |  | > 0.1 | E (E indicates −30%-−70%) |  |
| CN1C[C@@H]2C[C@H]1CN2CC#Cc1cc(N2C3CCC2CN(c2cc(-c4ccccc4O)nnc2N)C3)ccn1 [Compound 164, 2-[6-amino-5-[8-[2-[3-[(1S,4S)-5-methyl-2,5-diazabicyclo[2.2.1]heptan-2-yl]prop-1-ynyl]-4-pyridyl]-3,8-diazabicyclo[3.2.1]octan-3-yl]pyridazin-3-yl]phenol] | > 0.1 | 0 to 30 | 0.01 to 0.1 | E (E indicates −30%-−70%) |  |
